Measurements reported in patent publication US20210290576A1, “STRUCTURALLY MODIFIED FATTY ACIDS FOR IMPROVING GLYCEMIC CONTROL AND TREATING INFLAMMATORY BOWEL DISEASE” (NORTHSEA THERAPEUTICS B.V., priority 2018, published 2021).

What was measured:
plasma insulin = experiment: Plasma insulin at 24 h after OGTT in lean male SPD rats; format: in vivo, Sprague-Dawley (SPD) rats; settings: non-significant
Procedure: Evaluation of the Acute Effects of Compound a and Compound B Upon Active GLP-1 wconcentrations during an oral glucose tolerance test (OGTT) and at 24 h in lean male SPD Rats
To establish the acute effects of oral administration of Compound A and Compound B upon active GLP-1 and insulin concentrations, lean (about 300 g) male Sprague-Dawley (SPD) rats were divided into groups (n=6-8) and fed 74 and 84 mg/kg body weight of Compound A or Compound B respectively, either with or without concurrent administration of a dipeptidyl peptidase 4 (DPP-4) inhibitor 60 minutes prior to an oral glucose tolerance test (OGTT) as outlined below. Parallel groups receiving either corn oil alone (corn oil+vehicle, n=10) or corn oil and a DPP-4 inhibitor (“DPP-4 i”) (corn oil+(DPP-4 i), n=10) were included as controls. The DPP-4 inhibitor was linagliptin.
A second oral dose of 74 and 84 mg/kg bodyweight of Compound A or Compound B respectively was administered at 240 minutes and ad lib feeding was initiated. A second dose of DPP-4 inhibitor was administered at 480 mins prior to lights out. Blood samples were collected at 24 h for measurement of active GLP-1 and insulin. All values are mean, figures depict mean values (SEM).

DSS-induced colitis mice = experiment: DSS-induced colitis mouse model (body weight, colon length, survival, histology); format: in vivo, C56BL/6J mouse; settings: for colon length compared to control: 7 days DSS
From the text: Evaluation of Effects of Compound B on Intestinal Inflammation in DSS-Induced Colitis Mice
The dextran sodium sulphate-induced (DSS)-induced colitis model is well known in the art as a reproducible chemical induction of intestinal inflammation animal model. See, e.g., Eichele et al., World J Gastroenterol, 2017, 23(33):6016-6029; Randhawa et al., Korean J. Physiol. Pharmacol. (2014) 18:279-288; Jurjus et al., J. Pharmacol. Toxicol., Methods, 2004, 50:81-92; Gaudio et al., Dig. Dis. Sci., 1999, 44:1458-1475. The DSS-induced colitis model morphologically and symptomatically resembles epithelial damage seen in human IBD, and thus has become the most extensively employed experimental model of intestinal inflammation. Okayasu et al., Gastroenterology, 1990, 98:694-702; Kawada et al., World J. Gastroenterol. 2007, 13:5581-5593. The DSS-induced colitis model is most similar to ulcerative colitis in humans, but also has many similarities to Crohn's disease.
DSS is a water soluble, negatively charged sulfated polysaccharide with a highly variable molecular weight ranging from 5 to 1400 kDa. Murine colitis results from administration of about 1% to 3% DSS to the drinking water of a mouse strain susceptible to DSS-induced colitis. Without being bound by theory, the sulfated polysaccharide may not directly induce intestinal inflammation, but may instead act as a direct chemical toxin to colonic epithelium resulting in epithelial cell injury. It is thought that DSS disrupts the intestinal epithelial monolayer lining, leading to the entry of luminal bacteria and associated antigens into the mucosa and allowing the dissemination of proinflammatory intestinal contents into underlying tissue. […] Perse et al., J. Biomed. Biotechnol., 2012:718617.
The C56BL/6J mouse is a strain susceptible to DSS-induced colitis. To evaluate the efficacy and dosage of Compound B in treatment of DSS-induced colitis, inflammation was induced in 30 9-week old C56BL/6J mice by adding 1.5% DSS to the drinking water for 7 days. The mice were fed a standard chow diet that consisted of 30 weight percent wheat. The mice were divided into three groups of 10, and for each day of DSS administration each group was administered via oral gavage either (1) 100 μL corn oil per day (Control), (2) 126 mg/kg Compound B (dissolved in 100 μL corn oil) per day (“Compound B—Low” or “Compound B—L”), or (3) 252 mg/kg Compound B (dissolved in 100 μL corn oil) per day (“Compound B—High” or “Compound B—H”). Following the 7-day period of DSS induction, mice were sacrificed and their intestinal tissue was used for histopathological and gene expression analysis.
To assess the efficacy of Compound B in the treatment of DSS-induced colitis in mice, the body weight of mice was monitored. Weight loss is an indicator of colitis severity.
To assess the efficacy of Compound B in the treatment of DSS-induced colitis in mice, colon length of test mice was measured. Colon length correlates inversely with inflammation.
50% (n=5) of untreated mice in the control group were alive 7 days after colitis was induced, compared to 90% (n=9) of mice treated with the low dose of Compound B, and 100% (n=10) of mice treated with the high dose of compound B. Deaths in the control group were due to sepsis and severe colon inflammation. Thus, Compound B has a statistically significant effect on survival rate in colitis mice.
Histopathological analysis was performed on sections of formalin-fixed paraffin embedded tissue after hematoxylin and eosin (H&E) staining. Colonic samples were analyzed by histopathology for assignment of scores for colitis activity as described in Neurath et al., J. Exp. Med., 2002, 195:1129-1143. Briefly, the degrees of inflammation and epithelial and mucosal injury on microscopic cross-sections of the colon were graded semi-quantitatively from 0 to 4. […]

atherogenic lipids = settings: APOE*3.CETP mice; cited from earlier work

**Q.** Which “increase of plasma insulin concentrations at 24 h versus corn oil+vehicle and corn oil+DPP4 inhibitor” value (plasma insulin; compound alone) does the source give for `CC/C=C\C/C=C\C/C=C\C/C=C\C/C=C\CCCCSC(CC)(CC)C(=O)O` [Compound B, 2-ethyl-2-((5Z,8Z,11 Z,14Z,17Z)-icosa-5,8,11,14,17-pentaenylthio)butanoic acid] here?
**A.** 25%

**Q.** What about the “increase of plasma insulin concentrations at 24 h versus corn oil+vehicle and corn oil+DPP4 inhibitor” value (plasma insulin; in combination with DPP4 inhibitor (linagliptin)) of the same compound?
**A.** 40%

**Q.** And the “difference in weight loss, control vs. treated” value (DSS-induced colitis mice; 126 mg/kg per day (Compound B—Low))?
**A.** statistically significant after 7 days

**Q.** What about the “colon length compared to control” value (DSS-induced colitis mice; 126 mg/kg per day (low dose)) of the same compound?
**A.** significant increase in colon length

**Q.** And the “difference in weight loss, control vs. treated” value (DSS-induced colitis mice; 252 mg/kg per day (Compound B—High))?
**A.** statistically significant after 6 days

**Q.** And the “histological cross-sections of colon: morphology” value (DSS-induced colitis mice; 252 mg/kg per day (high dose))?
**A.** almost complete rescue

**Q.** What about the “histological scores of colonic samples versus untreated mice” value (DSS-induced colitis mice; 252 mg/kg per day (high dose)) of the same compound?
**A.** significantly lower

**Q.** And the “inflammation and epithelial and mucosal injury versus untreated mice” value (DSS-induced colitis mice; 252 mg/kg per day (high dose))?
**A.** lower

**Q.** What about the “colon length compared to control” value (DSS-induced colitis mice; 252 mg/kg per day (high dose)) of the same compound?
**A.** significant increase in colon length

**Q.** And the “histological cross-sections of colon: inflammatory infiltrates, edema, villus architecture” value (DSS-induced colitis mice; 126 and 252 mg/kg per day)?
**A.** dose-dependent attenuation of inflammatory infiltrates and edema

**Q.** What about the “weight loss compared to the control group” value (DSS-induced colitis mice; 126 and 252 mg/kg per day oral gavage, 1.5% DSS for 7 days) of the same compound?
**A.** dose-dependent reduction in weight loss

**Q.** What about the atherogenic lipids (atherogenic lipids) of the same compound?
**A.** significantly reduce atherogenic lipids
